Target: interaction between p53 and MDM2 proteins (Homo sapiens, UniProt Q00987)
Test: HTRF assay of inhibition of the p53-MDM2 interaction (GST-MDM2 / biotinylated p53 peptide)
Type: binding
Conditions: recombinant GST-tagged MDM2 and biotinylated p53 peptide, bsa:0.02%
Description: The ability of the compounds to inhibit the interaction between p53 and MDM2 proteins was measured by an HTRF (homogeneous time-resolved fluorescence) assay in which recombinant GST-tagged MDM2 binds to a peptide that resembles the MDM2-interacting region of p53. Binding of GST-MDM2 protein and p53-peptide (biotinylated on its N-terminal end) is registered by the FRET (fluorescence resonance energy transfer) between Europium (Eu)-labeled anti-GST antibody and streptavidin-conjugated Allophycocyanin (APC).
Add 10 uL diluted compounds (1:5 dilution in reaction buffer) to each well, mix by shaking. Add 20 uL biotinylated p53 peptide (180 nM working solution) in reaction buffer to each well and mix on shaker. Incubate at 37° C. for 1 h. Add 20 uL streptavidin-APC and Eu-anti-GST antibody mixture (6 nM Eu-anti-GST and 60 nM streptavidin-APC working solution) in TBS buffer with 0.2% BSA, shake at room temperature for 30 minutes and read using a TRF-capable plate reader at
665 and 615 nm (Victor 5, Perkin ElmerWallac). If not specified, the reagents were purchased from Sigma Chemical Co.

interaction between p53 and MDM2 proteins, sequence (Q00987 whole entry): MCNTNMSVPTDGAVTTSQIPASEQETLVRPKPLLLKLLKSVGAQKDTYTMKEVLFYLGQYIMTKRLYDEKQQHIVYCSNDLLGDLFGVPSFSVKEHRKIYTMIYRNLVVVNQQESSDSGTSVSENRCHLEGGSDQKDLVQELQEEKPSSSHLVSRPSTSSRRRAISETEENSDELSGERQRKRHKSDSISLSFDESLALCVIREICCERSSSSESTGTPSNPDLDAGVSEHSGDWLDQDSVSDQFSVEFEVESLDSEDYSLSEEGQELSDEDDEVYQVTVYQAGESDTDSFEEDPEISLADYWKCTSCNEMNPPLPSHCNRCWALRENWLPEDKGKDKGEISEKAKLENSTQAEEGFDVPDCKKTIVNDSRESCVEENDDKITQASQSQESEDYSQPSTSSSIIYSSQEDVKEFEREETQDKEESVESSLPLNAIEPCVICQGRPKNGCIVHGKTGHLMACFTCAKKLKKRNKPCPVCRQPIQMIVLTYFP

Q: With `COC(=O)c1ccc(NC(=O)[C@@H]2N[C@@H](CC(C)(C)C)[C@@]3(C(=O)Nc4cc(Cl)ccc43)[C@H]2c2cccc(Cl)c2F)cc1` (racemic) [Example 5, rac-4-{[(2′S,3′R,4′S,5′R)-6-chloro-4′-(3-chloro-2-fluoro-phenyl)-2′-(2,2-dimethyl-propyl)-2-oxo-1,2-dihydro-spiro[indole-3,3′-pyrrolidine]-5′-carbonyl]-amino}-benzoic acid methyl ester] as the compound, how does the IC50 read?
A: Its IC50 is 16 nM.

Q: Which IC50 does the source give for `CC(C)(C)C[C@@H]1N[C@@H](C(=O)Nc2ccc(C(=O)O)cc2)[C@H](c2cccc(Cl)c2F)[C@]12C(=O)Nc1cc(Cl)ccc12` (racemic) [Example 6, rac-4-{[(2′S,3′R,4′S,5′R)-6-chloro-4′-(3-chloro-2-fluoro-phenyl)-2′-(2,2-dimethyl-propyl)-2-oxo-1,2-dihydro-spiro[indole-3,3′-pyrrolidine]-5′-carbonyl]amino}-benzoic acid] here?
A: Its IC50 is 11 nM.

Q: With `CC(C)(C)C[C@@H]1N[C@@H](C(=O)Nc2ccc(C#N)cc2)[C@H](c2cccc(Cl)c2F)[C@]12C(=O)Nc1cc(Cl)ccc12` (racemic) [Example 7, rac-(2′S,3′R,4′S,5′R)-6-chloro-4′-(3-chloro-2-fluoro-phenyl)-2′-(2,2-dimethyl-propyl)-2-oxo-1,2-dihydro-spiro[indole-3,3′-pyrrolidine]-5′-carboxylic acid (4-cyano-phenyl)-amide] as the compound, how does the IC50 read?
A: Its IC50 is 14 nM.

Q: How did the IC50 turn out when `CC(C)(C)C[C@@H]1N[C@@H](C(=O)Nc2ccc(C(N)=O)cc2)[C@H](c2cccc(Cl)c2F)[C@]12C(=O)Nc1cc(Cl)ccc12` (racemic) [Example 8, rac-(2′S,3′R,4′S,5′R)-6-chloro-4′-(3-chloro-2-fluoro-phenyl)-2′-(2,2-dimethyl-propyl)-2-oxo-1,2-dihydro-spiro[indole-3,3′-pyrrolidine]-5′-carboxylic acid (4-carbamoyl-phenyl)-amide] was run?
A: The IC50 was 7 nM.

Q: Which IC50 does the source give for `CC(C)(C)C[C@@H]1N[C@@H](C(=O)Nc2ccc(S(C)(=O)=O)cc2)[C@H](c2cccc(Cl)c2F)[C@]12C(=O)Nc1cc(Cl)ccc12` (racemic) [Example 10, rac-(2′S,3′R,4′S,5′R)-6-chloro-4′-(3-chloro-2-fluoro-phenyl)-2′-(2,2-dimethyl-propyl)-2-oxo-1,2-dihydro-spiro[indole-3,3′-pyrrolidine]-5′-carboxylic acid (4-methanesulfonyl-phenyl)-amide] here?
A: The IC50 was 13 nM.

Q: For `CC(=O)c1ccc(NC(=O)[C@@H]2N[C@@H](CC(C)(C)C)[C@@]3(C(=O)Nc4cc(Cl)ccc43)[C@H]2c2cccc(Cl)c2F)cc1` (racemic) [Example 11, rac-(2′S,3′R,4′S,5′R)-6-chloro-4′-(3-chloro-2-fluoro-phenyl)-2′-(2,2-dimethyl-propyl)-2-oxo-1,2-dihydro-spiro[indole-3,3′-pyrrolidine]-5′-carboxylic acid (4-acetyl-phenyl)-amide], which IC50 is on record?
A: The IC50 was 13 nM.

Q: With `CC(C)(C)C[C@@H]1N[C@@H](C(=O)Nc2ccc(F)cc2)[C@H](c2cccc(Cl)c2F)[C@]12C(=O)Nc1cc(Cl)ccc12` (racemic) [Example 13, rac-(2′S,3′R,4′S,5′R)-6-chloro-4′-(3-chloro-2-fluoro-phenyl)-2′-(2,2-dimethyl-propyl)-2-oxo-1,2-dihydro-spiro[indole-3,3′-pyrrolidine]-5′-carboxylic acid (4-fluoro-phenyl)-amide] as the compound, how does the IC50 read?
A: Its IC50 is 19 nM.

Q: Which IC50 does the source give for `COC(=O)c1ccc(NC(=O)[C@@H]2N[C@@H](CC(C)(C)C)[C@@]3(C(=O)Nc4cc(Cl)ccc43)[C@H]2c2cccc(Cl)c2F)s1` (racemic) [Example 14, rac-5-{[(2′S,3′R,4′S,5′R)-6-chloro-4′-(3-chloro-2-fluoro-phenyl)-2′-(2,2-dimethyl-propyl)-2-oxo-1,2-dihydro-spiro[indole-3,3′-pyrrolidine]-5′-carbonyl]amino}-thiophene-2-carboxylic acid methyl ester] here?
A: Its IC50 is 22 nM.

Q: For `COC(=O)c1ccc(NC(=O)[C@@H]2N[C@@H](CC(C)(C)C)[C@@]3(C(=O)Nc4cc(Cl)ccc43)[C@H]2c2cccc(Cl)c2F)cc1OC` (racemic) [Example 15, rac-4-{[(2′S,3′R,4′S,5′R)-6-chloro-4′-(3-chloro-2-fluoro-phenyl)-2′-(2,2-dimethyl-propyl)-2-oxo-1,2-dihydro-spiro[indole-3,3′-pyrrolidine]-5′-carbonyl]amino}-2-methoxy-benzoic acid methyl ester], which IC50 is on record?
A: Its IC50 is 13 nM.

Q: With `COc1cc(NC(=O)[C@@H]2N[C@@H](CC(C)(C)C)[C@@]3(C(=O)Nc4cc(Cl)ccc43)[C@H]2c2cccc(Cl)c2F)ccc1C(=O)O` (racemic) [Example 16, rac-4-{[(2′S,3′R,4′S,5′R)-6-chloro-4′-(3-chloro-2-fluoro-phenyl)-2′-(2,2-dimethyl-propyl)-2-oxo-1,2-dihydro-spiro[indole-3,3′-pyrrolidine]-5′-carbonyl]-amino}-2-methoxy-benzoic acid] as the compound, how does the IC50 read?
A: The IC50 was 10 nM.

Q: For `CC(C)(C)C[C@@H]1N[C@@H](C(=O)Nc2ccc(Cl)cc2)[C@H](c2cccc(Cl)c2F)[C@]12C(=O)Nc1cc(Cl)ccc12` (racemic) [Example 21, rac-(2′S,3′R,4′S,5′R)-6-chloro-4′-(3-chloro-2-fluoro-phenyl)-2′-(2,2-dimethyl-propyl)-2-oxo-1,2-dihydro-spiro[indole-3,3′-pyrrolidine]-5′-carboxylic acid (4-chloro-phenyl)-amide], which IC50 is on record?
A: The IC50 was 19 nM.

Q: For `COc1cc(NC(=O)[C@@H]2N[C@@H](CC(C)(C)C)[C@@]3(C(=O)Nc4cc(Cl)ccc43)[C@H]2c2cccc(Cl)c2F)ccc1C(N)=O` (racemic) [Example 22, rac-(2′S,3′R,4′S,5′R)-6-chloro-4′-(3-chloro-2-fluoro-phenyl)-2′-(2,2-dimethyl-propyl)-2-oxo-1,2-dihydro-spiro[indole-3,3′-pyrrolidine]-5′-carboxylic acid (4-carbamoyl-3-methoxy-phenyl)-amide], which IC50 is on record?
A: Its IC50 is 11 nM.

Q: With `COC(=O)c1ccc(NC(=O)[C@@H]2N[C@@H](CC(C)(C)C)[C@@]3(C(=O)Nc4cc(Cl)ccc43)[C@H]2c2cccc(Cl)c2F)cc1Cl` (racemic) [Example 25, rac-2-chloro-4-{[(2′S,3′R,4′S,5′R)-6-chloro-4′-(3-chloro-2-fluoro-phenyl)-2′-(2,2-dimethyl-propyl)-2-oxo-1,2-dihydro-spiro[indole-3,3′-pyrrolidine]-5′-carbonyl]-amino}-benzoic acid methyl ester] as the compound, how does the IC50 read?
A: The IC50 was 20 nM.

Q: For `Cn1ccc(NC(=O)[C@@H]2N[C@@H](CC(C)(C)C)[C@@]3(C(=O)Nc4cc(Cl)ccc43)[C@H]2c2cccc(Cl)c2F)cc1=O` (racemic) [Example 27, rac-(2′S,3′R,4′S,5′R)-6-chloro-4′-(3-chloro-2-fluoro-phenyl)-2′-(2,2-dimethyl-propyl)-2-oxo-1,2-dihydro-spiro[indole-3,3′-pyrrolidine]-5′-carboxylic acid (1-methyl-2-oxo-1,2-dihydro-pyridin-4-yl)-amide], which IC50 is on record?
A: Its IC50 is 17 nM.

Q: `CC(C)(C)C[C@@H]1N[C@@H](C(=O)Nc2ccn(CCO)c(=O)c2)[C@H](c2cccc(Cl)c2F)[C@]12C(=O)Nc1cc(Cl)ccc12` (racemic) [Example 30] was tested. Which IC50 did it give?
A: Its IC50 is 14 nM.

Q: With `COC(=O)c1cccc(NC(=O)[C@@H]2N[C@@H](CC(C)(C)C)[C@@]3(C(=O)Nc4cc(Cl)ccc43)[C@H]2c2cccc(Cl)c2F)c1` (racemic) [Example 31, rac-3-{[(2′S,3′R,4′S,5′R)-6-chloro-4′-(3-chloro-2-fluoro-phenyl)-2′-(2,2-dimethyl-propyl)-2-oxo-1,2-dihydro-spiro[indole-3,3′-pyrrolidine]-5′-carbonyl]amino}-benzoic acid methyl ester] as the compound, how does the IC50 read?
A: Its IC50 is 17 nM.

Q: `CC(C)(C)C[C@@H]1N[C@@H](C(=O)Nc2cccc(C(=O)O)c2)[C@H](c2cccc(Cl)c2F)[C@]12C(=O)Nc1cc(Cl)ccc12` (racemic) [Example 32, rac-3-{[(2′S,3′R,4′S,5′R)-6-chloro-4′-(3-chloro-2-fluoro-phenyl)-2′-(2,2-dimethyl-propyl)-2-oxo-1,2-dihydro-spiro[indole-3,3′-pyrrolidine]-5′-carbonyl]-amino}-benzoic acid] was tested. Which IC50 did it give?
A: Its IC50 is 17 nM.

Q: With `CC(C)(C)C[C@@H]1N[C@@H](C(=O)Nc2cccc(C(N)=O)c2)[C@H](c2cccc(Cl)c2F)[C@]12C(=O)Nc1cc(Cl)ccc12` (racemic) [Example 33, rac-(2′S,3′R,4′S,5′R)-6-chloro-4′-(3-chloro-2-fluoro-phenyl)-2′-(2,2-dimethyl-propyl)-2-oxo-1,2-dihydro-spiro[indole-3,3′-pyrrolidine]-5′-carboxylic acid (3-carbamoyl-phenyl)-amide] as the compound, how does the IC50 read?
A: Its IC50 is 13 nM.

Q: Which IC50 does the source give for `CN(C)C(=O)c1ccc(NC(=O)[C@@H]2N[C@@H](CC(C)(C)C)[C@@]3(C(=O)Nc4cc(Cl)ccc43)[C@H]2c2cccc(Cl)c2F)cc1` (racemic) [Example 34, rac-(2′S,3′R,4′S,5′R)-6-chloro-4′-(3-chloro-2-fluoro-phenyl)-2′-(2,2-dimethyl-propyl)-2-oxo-1,2-dihydro-spiro[indole-3,3′-pyrrolidine]-5′-carboxylic acid (4-dimethylcarbamoyl-phenyl)-amide] here?
A: Its IC50 is 18 nM.

Q: `Cc1ccc(NC(=O)[C@@H]2N[C@@H](CC(C)(C)C)[C@@]3(C(=O)Nc4cc(Cl)ccc43)[C@H]2c2cccc(Cl)c2F)cc1` (racemic) [Example 36, rac-(2′S,3′R,4′S,5′R)-6-chloro-4′-(3-chloro-2-fluoro-phenyl)-2′-(2,2-dimethyl-propyl)-2-oxo-1,2-dihydro-spiro[indole-3,3′-pyrrolidine]-5′-carboxylic acid p-tolylamide] was tested. Which IC50 did it give?
A: Its IC50 is 18 nM.
